Test results from patent US9492497B2, “Peptides for the treatment of cancer” (ÖSTERREICHISCHE AKADEMIE DER WISSENSCHAFTEN, priority 2013, dated 2016).
“Also recorded” adds a separate entry of the source. Where two headings read alike, the source gives them in different places. Marks after values point to notes of the source that are not given here. Positions of bridges follow the written chain, without caps; N, C: chain ends. Residues, ends and D or L forms follow the SMILES beside them. No end group written: not given here.

Tests used:
[1] = test system: A375 melanoma cell line; settings: 20 μM peptide, 8 h, PI-uptake
Source text: (§1) Epidermis was separated. […] The pellet was resuspended in melanocyte growth media (Biomedica). […] All cell cultures were periodically checked for mycoplasma.

[2] = test system: U87 mg glioblastoma cell line; settings: 20 μM peptide, 8 h, PI-uptake
Source text: as §1

[3] = test system: normal human dermal fibroblasts (NHDF); assay: PI-uptake assay, NHDF; assay type: cell-based; settings: 8 h
Source text: as §1

[4] = test system: non-cancer cells (melanocytes, NHDF); assay: PI-uptake assay, non-cancer cells pooled; settings: 20 μM peptide, up to 8 h
Protocol: The primary human melanoma cell line SBcl2 and the metastatic melanoma WM164 were maintained in RPMI (Sigma) supplemented with 2% FBS, 2% L-glutamine and 1% Pen/Strep. Glioblastoma (U87-mg) purchased from CLS (Cell Line Service Heidelberg, Germany) and Rhabdomyosarcoma cell lines (TE671) purchased from ECAAC (Health Protection Agency Culture Collections Salisbury, UK) are cultured in Dulbecco's Modified Eagle Medium (DMEM) with addition of 2 mM Glutamine, 10% FBS (fetal bovine serum). Melanoma cell line A375 CLS (Cell Line Service Heidelberg, Germany) was cultured in Dulbecco's Modified Eagle Medium (DMEM)(PAA) with addition of 2 mM Glutamine and 10% FBS (fetal bovine serum. Human melanocytes used as healthy control cells: were isolated from the foreskin). The foreskin was cut into small pieces and incubated with 0.3% trypsin (PAA) overnight at 4° C. and for one hour at 37° C. Epidermis was separated. Cells were mechanically removed from the cell layer and centrifuged at 300 g for 3 min. The pellet was resuspended in melanocyte growth media (Biomedica). Melanocytes were further cultured in human melanocytes growth medium (PromoCell GmbH). […]
For detection of PI-uptake by fluorescence spectroscopy experiments were performed according to the following protocol. […]
Cytotoxicity was calculated from the percentage of PI positive cells in media alone (P0) and in the presence of peptide (PX). […]

[5] = test system: cancer cells (SBcl-2, WM164); settings: read-out: IC50 against cancer cells (MTS), 24 h, FIG. 6C
Protocol: as §1
(§2) Cell proliferation was measured by using a CellTiter 96 AQ nonradioactive cell proliferation assay (Promega). Cells were plated in 96-well plates and grown until confluence. Peptides were added to a final concentration of 5-100 μM. After incubation for 24 h at 37° C. (5% CO2) MTS [3-(4,5-dimethylthiazol-2yl)-5-(3-carboxymethoxyphenyl)-2-(4-sulfophenyl)-2H-tetrazolium]-phenozine methosulfate solution (20 μl/well) was added and cells were again incubated for 2 h at 37° C. (5% CO2). The MIS compound is bioreduced by cells into a colored formazan product that is soluble in tissue culture medium. The quantity of the formazan product as measured by the amount of 490 nm absorbance is directly proportional to the number of living cells in culture. Data are calculated as a percentage of the control (untreated) samples and represent the average of three wells in one experiment which was repeated three times per cell line.
(§3) To determine long-time toxicity of peptides, a MTS cell proliferation assay was used to elucidate cell viability upon 24 h incubation with variant peptide concentration and human melanoma cell lines SBcl-2 and WM164 and non-differentiated human skin fibroblast cell line NHDF.

[6] = test system: human red blood cells; assay: Hemolysis; assay type: cell-based; settings: for % lysis of 2.5% RBCs: one hour, 37° C.; for hemolysis IC50: human red blood cells
Protocol: The hemolytic activity towards human red blood cells (RBCs), which were obtained from heparinized human blood, was determined by the release of hemoglobin following one hour incubation at 37° C. in MHNA (Mueller Hinton cation Non Adjusted). Percentage of hemolysis of RBCs was calculated using 1% Triton as 100% lysis and PBS as 0% lysis, peptide concentration was 500 μg/ml.

[7] = test system: cancer cells (SBcl-2, WM164, TE671); assay: PI-uptake assay, cancer cells pooled; assay type: cell-based; settings: 20 μM peptide; for cytotoxic activity against cancer cells (killing): up to 8 h
Source text: as §1

[8] = test system: melanoma cell line SBcl-2; assay: PI-uptake assay, SBcl-2; assay type: cell-based, human; settings: 8 h; for IC50: PI-uptake
Protocol: as §1
Cells were incubated in media containing serum for 8 h in the presence of peptides. Peptide concentrations were varied from 10 to 80 μM.

[9] = test system: human skin fibroblast cell line NHDF; assay: MTS cell proliferation assay, NHDF; settings: read-out: IC50 Fibroblasts / NHDF (MTS); MTS cell viability assay, 24 h
Protocol: as §1, §2, §3

[10] = test system: tumor over non tumor cells; assay: Specificity for tumor over non tumor cells (PI uptake studies); assay type: cell-based, human; settings: for Cancer Specificity, -fold specificity for melanoma over non tumor skin cells: melanoma (SBcl2 or A375) over melanocytes or NHDF-c, 8 hours, PI uptake
Source text: as §1

[11] = test system: human red blood cells; settings: 500 μg/ml peptide; from Zweytick et al., J. Biol. Chem. 286 (2011); cited from earlier work
[12] = test system: melanoma metastasis WM164; settings: for IC50: read-out: IC50 WM164 (MTS), 24 h
Protocol: as §1, §2, §3

[13] = test system: melanoma cell line SBcl-2; assay: MTS cell proliferation assay, SBcl-2; settings: 24 h; for IC50: read-out: IC50 SBcl-2 (MTS), MTS cell viability assay
Protocol: as §1, §2, §3

[14] = MTS cell proliferation assay, NHDF; settings: human, NHDF (normal human dermal fibroblasts)
Protocol: as §1, §2, §3

[15] = Tryptophan fluorescence and quenching, healthy mimic; settings: in presence of PC
Protocol: (§4) Tryptophan fluorescence spectra were obtained at room temperature using an excitation wavelength of 282 nm and a slit width of 5 nm for excitation and emission monochromators. Quenching of Tryptophan was carried out in the presence and absence of phospholipid liposomes (lipid to peptide ratio 25:1) using 0.1, 0.4 and 0.7 M acrylamide. The data were analyzed according to the Stern-Volmer equation: F0/F=1+KSV[Q] where F0 and F represent the fluorescence emission intensities in the absence and presence of the quencher molecule (Q) and KSV is the Stern-Volmer quenching constant, which is a quantitative measure for the accessibility of tryptophan to acrylamide (Tao, T. and Cho, J. Biochemistry 18(1979), 2759-2765).

[16] = Tryptophan fluorescence and quenching, cancer mimic; settings: in presence of target lipid PS
Protocol: as §4

[17] = test system: caspase-3/7 activity of melanoma cell line SBcl-2; assay: Spectrofluorimetric analysis of caspase-3/7 activity; assay type: cell-based, human; settings: SBcl-2, 10-20 μM peptide, 4 hours
Protocol: Spectrofluorimetric analysis of caspase-3/7 activity 5×10^5 cells/ml were seeded into 96-well plate and grown overnight at 37° C. and 5% CO2. Cells were incubated with different concentrations of peptide for 4 hours. Apo-ONE® caspase-3/7 reagent was added in a 1:1 volume ratio and cells were incubated for 4 hours. Cells were then analyzed by fluorescence spectroscopy (GloMax®-Multi+ Microplate Multimode Reader with Instinc™). Untreated cells were used as negative control. Analysis was performed with Apo-ONE® Homogeneous Caspase-3/7 Assay (see FIG. 7).

[18] = test system: differentiated non-tumorigenic melanocytes; assay: PI-uptake assay, melanocytes; assay type: cell-based, human; settings: 20 μM peptide, 8 h
Protocol: as §1
(§5) Cells were incubated in media containing serum for 8 h in the presence of peptides. Peptide concentrations were varied from 10 to 80 μM. FIG. 3 illustrates that the peptide moiety PEP-322 is only minor active against the melanoma cell line SBcl-2 with less than 5% killing at a peptide concentration of 80 μM, as well as against melanocytes with a moderate two-fold selectivity for WM164 cells at 20 μM peptide concentration (FIG. 3C).

[19] = test system: melanoma metastasis WM164; assay: PI-uptake assay, WM164; assay type: cell-based, human; settings: 20 μM peptide
Protocol: as §1, §5

CC[C@H](C)[C@H](NC(=O)[C@@H]1CSSC[C@H](NC(=O)[C@H](CCCCN)NC(=O)[C@@H](N)[C@@H](C)O)C(=O)N[C@@H](Cc2ccccc2)C(=O)N[C@@H](CCC(N)=O)C(=O)N[C@@H](Cc2c[nH]c3ccccc23)C(=O)N[C@@H](CCC(N)=O)C(=O)N[C@@H](CCCNC(=N)N)C(=O)N[C@@H](CC(N)=O)C(=O)N[C@@H](CCSC)C(=O)N[C@@H](CCCNC(=N)N)C(=O)N[C@@H](CCCCN)C(=O)N[C@@H](C(C)C)C(=O)N[C@@H](CCCNC(=N)N)C(=O)NCC(=O)N2CCC[C@H]2C(=O)N2CCC[C@H]2C(=O)N[C@@H](C(C)C)C(=O)N[C@@H](CO)C(=O)N1)C(=O)N[C@@H](CCCCN)C(=O)N[C@@H](CCCNC(=N)N)C(=O)N[C@@H](CC(=O)O)C(=O)N[C@@H](CO)C(=O)O [hLFcin (37-61)] (H-TKCFQWQRNMRKVRGPPVSCIKRDS-OH; disulfide 3-20)
cytotoxicity against melanoma cell line A375 [1]: only weak activity
cytotoxicity against glioblastoma cell line U87 mg [2]: only weak activity
toxicity against normal human dermal fibroblasts NHDF-c [3]: no toxicity

FWQRRIRRWRRFWQRRIRRWRR-NH2 [DIM-PEP-318]
non-cancer toxicity (melanocytes, NHDF) [4]: highly active
IC50 [5]: < 10 µM
hemolytic activity (in words) ([6]; 500 μg/ml peptide, 2.5% red blood cells): not hemolytic
% lysis of 2.5% RBCs ([6]; 500 μg/ml peptide): 2.87 ± 0.57%
hemolysis IC50 [6]: >500 µg/mL
cytotoxic activity against cancer cells (killing) [7]: up to 90%
IC50 [8]: < 20 µM
IC50 [3]: < 20 µM
IC50 [9]: 10 µM

PFFWRIRIRRPFFWRIRIRR-NH2 [DIM-PEP-324]
activity and selectivity for cancer cells (in words) [10]: selective for cancer cells
Cancer Specificity, -fold specificity for melanoma over non tumor skin cells ([10]; 20 μM peptide): yes (7fold) (DIM-),

PFWRIRIRR PFWRIRIRR (PFWRIRIRRPFWRIRIRR) [DIM-PEP-322]
activity and selectivity for cancer cells (in words) [10]: selective for cancer cells
Cancer Specificity, -fold specificity for melanoma over non tumor skin cells ([10]; 20 μM peptide): yes (50fold)

PFWRIRIRR RRIRIRWFP (PFWRIRIRRRRIRIRWFP) [R-DIM-PEP-322]
activity and selectivity for cancer cells (in words) [10]: selective for cancer cells
Cancer Specificity, -fold specificity for melanoma over non tumor skin cells ([10]; 20 μM peptide): (DIM-), 20fold
time to highest activity against cancer cells [7]: ≥ 8 h

PFWRIRIRR-NH2 [PEP-322, PFWRIRIRR-NH2]
% lysis of 2.5% RBCs [11]: 2^b %
cell viability WM164 ([12]; 100 μM peptide, 24 h, MTS): more than 70%
IC50 [12]: > 100 µM
cell viability SBcl-2 ([13]; 100 μM peptide, MTS): 40%
IC50 [13]: 90 µM
IC50 [8]: > 80 µM
IC50 [3]: > 80 µM
IC50 [9]: > 100 µM
viability at 24 h, 100 μM [14]: > 70%

PFWRIRIRRD DRRIRIRWFP (PFWRIRIRRDDRRIRIRWFP) [R-DIM-PEP-323]
activity and selectivity for cancer cells (in words) [10]: selective for cancer cells

PFWRIRIRRPRRIRIRWFP-NH2 [R-DIM-P-PEP-322, PFWRIRIRRPRRIRIRWFP-NH2]
blue shift of Trp emission wavelength, PC [15]: no blue shift appears
activity and selectivity for cancer cells (in words) [10]: cancer active and specific; also recorded: selective for cancer cells
specificity for cancer cells (PI-uptake ratio SBcl-2 vs. melanocytes) ([10]; 20 μM peptide, 8 h): more than 100 fold
Cancer Specificity, -fold specificity for melanoma over non tumor skin cells ([10]; 20 μM peptide): (R-DIM-), >100fold)
blue shift of Trp emission wavelength, PS [16]: blue shift is only detected in presence of the target lipid PS
increase of green fluorescence (caspase-3/7 activity) [17]: 200 fold
IC50 [12]: 15 µM
melanocytes killed [18]: less than 1%
IC50 [13]: 8 µM
% lysis of 2.5% RBCs ([6]; 500 μg/ml peptide): 0.84 ± 0.63%
hemolysis IC50 [6]: >500 µg/mL
time to highest activity against cancer cells [7]: 4 to 8 h
cytotoxic activity against cancer cells (killing) [7]: up to 80%
sensitivity of WM164 for the peptide [19]: highly sensitive
PI positive SBcl-2 cells ([8]; 20 μM peptide): more than 80%
IC50 [3]: > 80 µM
IC50 [9]: 80 µM

PFWRRRIRIRR RRIRIRRRWFP (PFWRRRIRIRRRRIRIRRRWFP) [R-DIM-PEP-337]
activity and selectivity for cancer cells (in words) [10]: less specific
Cancer Specificity, -fold specificity for melanoma over non tumor skin cells ([10]; 20 μM peptide): (2fold) (R-DIM-)

RWKRINRQWFFWQRNIRKWR-NH2 [R-DIM-PEP-316]
activity and selectivity for cancer cells (in words) [10]: specific; also recorded: selective for cancer cells
Cancer Specificity, -fold specificity for melanoma over non tumor skin cells ([10]; 20 μM peptide): Yes (15fold) (R-DIM-)
